Assay results from patent publication US12629355B2, “Drug inhibitor against migration and invasion of cancer cells and methods of treating against metastasis of cancer cells” (HOWARD UNIVERSITY, priority 2019, dated 2026).

Biological target: T1, RACK1A Y248 phosphorylation (Arabidopsis thaliana, UniProt O24456)
T1 construct: from tissue; host or cells: one-week old Arabidopsis seedlings (whole-seedling lysate)
Assay: Stress hormone (ABA) induced RACK1A Y248 phosphorylation in Arabidopsis seedlings, western blot (FIG. 1)
Assay type: cell-based
Details: 10 uM ABA, 12 hours
Source text: The results of lab experiment establish the compounds identified by in silico screen to prevent RACK1 Y248 phosphorylation can inhibit RACK1 Y248 phosphorylation and confirm their utility in their application in RACK1 mediated cellular pathways. Y248 phosphorylation has previously been identified as a key event needed for RACK1 mediated scaffolding activities by regulating protein-protein interactions in plants. The corresponding residue in human RAKI is also a key requirement for scaffolding activities needed at the receptor level during the invasion and migration of cancer cells. […] The knock-out plant did maintain both the RACK1B protein and the RACK1C protein, but the antibody was raised to detect the RACK1A Y248 phosphorylation only.
As to FIG. 1, since RACK1 is a regulator of plant stress hormone Abscisic acid (ABA) (Guo et al., 2009), one-week old Arabidopsis seedlings were treated with 10 uM of ABA in the presence/absence of the inhibitor compounds for 12 hours in a growth chamber (overnight) at 22 C mostly in the night dark. Lysates isolated in buffer (Cell Signaling, MA) supplemented with plant protease inhibitor (Sigma-Aldrich), Protein Tyrosine phosphatase inhibitors (Santa Cruz Biotechnology, TX), and N-Ethylamaleimide (Sigma-Aldrich) at 25 mM to inhibit de-sumoylation. […]

T1 sequence (O24456 whole entry): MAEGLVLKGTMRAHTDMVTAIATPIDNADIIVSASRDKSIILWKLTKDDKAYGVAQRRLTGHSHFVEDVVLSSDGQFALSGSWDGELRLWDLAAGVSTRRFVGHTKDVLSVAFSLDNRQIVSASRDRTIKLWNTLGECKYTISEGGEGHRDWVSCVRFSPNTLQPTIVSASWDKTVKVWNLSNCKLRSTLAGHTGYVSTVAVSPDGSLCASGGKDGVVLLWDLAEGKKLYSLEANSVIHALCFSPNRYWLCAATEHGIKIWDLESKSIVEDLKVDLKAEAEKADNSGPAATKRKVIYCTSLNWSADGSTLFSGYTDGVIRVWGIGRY

Nn1c(S)nnc1-c1ccc(F)cc1 [SD 29, reference compound]
RACK1A Y248 phosphorylation with stress hormone present: prevents Y248 phosphorylation
